Measured values published in patent publication US10478426B2, “Enhancer of Zeste Homolog 2 inhibitors” (GlaxoSmithKline LLC, priority 2012, dated 2019).

The compounds below were run against EZH2 within the PRC2 complex (Homo sapiens (Human), UniProt Q15910) (assay: EZH2 methyltransferase scintillation proximity assay (SPA) with PRC2 complex). Settings: 3H-SAM methyl transfer to Histone H3 of HeLa mononucleosomes; 30 min preincubation, 1 hour reaction.
Format: biochemical
Method: Compounds contained herein were evaluated for their ability to inhibit the methyltransferase activity of EZH2 within the PRC2 complex. Human PRC2 complex was prepared by co-expressing each of the 5 member proteins (FLAG-EZH2, EED, SUZ12, RbAp48, AEBP2) in Sf9 cells followed by co-purification. Enzyme activity was measured in a scintillation proximity assay (SPA) where a tritiated methyl group is transferred from 3H-SAM to a lysine residue on Histone H3 of a mononucleosome, purified from HeLa cells. Mononucleosomes were captured on SPA beads and the resulting signal is read on a ViewLux plate reader.
Part A. Compound Preparation
• 1. Prepare 10 mM stock of compounds from solid in 100% DMSO. • 2. Set up an 11-point serial dilution (1:3 dilution, top concentration 10 mM) in 100% DMSO for each test compound in a 384 well plate leaving columns 6 and 18 for DMSO controls. • 3. Dispense 100 nL of compound from the dilution plate into reaction plates (Grenier Bio-One, 384-well, Cat #784075). Part B. Reagent Preparation Prepare the Following Solutions: • 1. 50 mM Tris-HCl, pH 8: Per 1 L of base buffer, combine 1 M Tris-HCl, pH 8 (50 mL) and distilled water (950 mL). • 2. 1× Assay Buffer: Per 10 mL of 1× Assay Buffer, combine 50 mM Tris-HCl, pH 8 (9958 uL), 1 M MgCl2 (20 uL), 2 M DTT (20 uL), and 10% Tween-20 (2 uL) to provide a final concentration of 50 mM Tris-HCl, pH 8, 2 mM MgCl2, 4 mM DTT, 0.002% Tween-20. • 3. 2× Enzyme Solution: Per 10 mL of 2× Enzyme Solution, combine 1× Assay Buffer and PRC2 complex to provide a final enzyme concentration of 10 nM. • 4. SPA Bead Suspension: Per 1 mL of SPA Bead Suspension, combine PS-PEI coated LEADSeeker beads (40 mg) and ddH2O (1 mL) to provide a final concentration of 40 mg/mL. • 5. 2× Substrate Solution: Per 10 mL of 2× Substrate Solution, combine 1× Assay Buffer (9728.55 uL), 800 ug/mL mononucleosomes (125 uL), 1 mM cold SAM (4 uL), and 7.02 uM 3H-SAM (142.45 uL; 0.55 mCi/mL) to provide a final concentration of 5 ug/mL nucleosomes, 0.2 uM cold SAM, and 0.05 uM 3H-SAM. • 6. 2.67× Quench/Bead Mixture: Per 10 mL of 2.67× Quench/Bead Mixture, combine ddH2O (9358 uL), 10 mM cold SAM (267 uL), 40 mg/mL Bead Suspension (375 uL) to provide a final concentration of 100 uM cold SAM and 0.5 mg/mL SPA beads. Part C. Assay Reaction in 384-Well Grenier Bio-One Plates Compound Addition • 1. Dispense 100 nL/well of 100× Compound to test wells (as noted above). • 2. Dispense 100 nL/well of 100% DMSO to columns 6 & 18 for high and low controls, respectively. Assay • 1. Dispense 5 uL/well of 1× Assay Buffer to column 18 (low control reactions). • 2. Dispense 5 uL/well of 2× Enzyme Solution to columns 1-17, 19-24. • 3. Spin assay plates for ˜1 minute at 500 rpm. • 4. Stack the assay plates, covering the top plate. • 5. Incubate the compound/DMSO with the enzyme for 30 minutes at room temperature. • 6. Dispense 5 uL/well of 2× Substrate Solution to columns 1-24. • 7. Spin assay plates for ˜1 minute at 500 rpm. • 8. Stack the assay plates, covering the top plate. • 9. Incubate the assay plates at room temperature for 1 hour. Quench/Bead Addition • 1. Dispense 5 uL/well of the 3× Quench/Bead Mixture to columns 1-24. • 2. Seal the top of each assay plate with adhesive TopSeal. • 3. Spin assay plates for ˜1 minute at 500 rpm. • 4. Equilibrate the plates for >20 min. Read Plates • 1. Read the assay plates on the Viewlux Plate Reader utilizing the 613 nm emission filter with a 300 s read time. Reagent addition can be done manually or with automated liquid handler. • The final DMSO concentration in this assay is 1%. • The positive control is in column 6; negative control is in column 18. • Final starting concentration of compounds is 100 μM. Results
Percent inhibition was calculated relative to the DMSO control for each compound concentration and the resulting values were fit using standard IC50 fitting parameters within the ABASE data fitting software package.

Chain of EZH2 within the PRC2 complex (Q15910 whole entry): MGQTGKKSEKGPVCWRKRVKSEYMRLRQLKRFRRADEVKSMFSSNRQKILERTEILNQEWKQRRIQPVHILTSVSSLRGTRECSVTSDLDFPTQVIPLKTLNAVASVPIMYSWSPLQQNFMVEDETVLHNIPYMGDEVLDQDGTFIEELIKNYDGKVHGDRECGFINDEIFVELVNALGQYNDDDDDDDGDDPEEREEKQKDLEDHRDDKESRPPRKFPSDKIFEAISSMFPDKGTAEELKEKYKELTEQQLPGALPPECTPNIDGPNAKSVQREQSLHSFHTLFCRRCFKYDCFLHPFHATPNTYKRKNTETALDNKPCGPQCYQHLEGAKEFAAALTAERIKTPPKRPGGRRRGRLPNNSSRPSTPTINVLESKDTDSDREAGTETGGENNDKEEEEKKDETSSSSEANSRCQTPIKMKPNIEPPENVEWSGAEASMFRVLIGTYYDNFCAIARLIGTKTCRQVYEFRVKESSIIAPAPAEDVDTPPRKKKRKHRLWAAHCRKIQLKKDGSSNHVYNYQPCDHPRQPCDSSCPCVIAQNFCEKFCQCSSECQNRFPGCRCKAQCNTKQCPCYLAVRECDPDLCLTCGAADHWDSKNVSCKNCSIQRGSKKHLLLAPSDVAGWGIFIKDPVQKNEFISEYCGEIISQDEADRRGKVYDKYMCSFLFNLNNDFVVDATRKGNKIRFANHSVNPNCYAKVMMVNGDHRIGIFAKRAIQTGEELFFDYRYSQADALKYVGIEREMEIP
Chain of EZH2 within the PRC2 complex (O75530 whole entry partner): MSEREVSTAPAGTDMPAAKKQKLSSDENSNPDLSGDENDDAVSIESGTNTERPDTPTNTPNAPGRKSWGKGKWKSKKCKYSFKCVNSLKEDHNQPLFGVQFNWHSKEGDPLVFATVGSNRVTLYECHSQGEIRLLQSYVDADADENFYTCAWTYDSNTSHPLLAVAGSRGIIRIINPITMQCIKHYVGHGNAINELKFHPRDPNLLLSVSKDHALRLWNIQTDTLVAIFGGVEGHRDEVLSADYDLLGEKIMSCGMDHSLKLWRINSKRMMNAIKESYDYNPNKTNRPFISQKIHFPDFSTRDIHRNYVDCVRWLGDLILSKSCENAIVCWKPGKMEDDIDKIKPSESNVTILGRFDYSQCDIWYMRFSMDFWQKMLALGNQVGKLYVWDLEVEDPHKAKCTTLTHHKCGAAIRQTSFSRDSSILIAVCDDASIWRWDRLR
Chain of EZH2 within the PRC2 complex (Q15022 whole entry partner): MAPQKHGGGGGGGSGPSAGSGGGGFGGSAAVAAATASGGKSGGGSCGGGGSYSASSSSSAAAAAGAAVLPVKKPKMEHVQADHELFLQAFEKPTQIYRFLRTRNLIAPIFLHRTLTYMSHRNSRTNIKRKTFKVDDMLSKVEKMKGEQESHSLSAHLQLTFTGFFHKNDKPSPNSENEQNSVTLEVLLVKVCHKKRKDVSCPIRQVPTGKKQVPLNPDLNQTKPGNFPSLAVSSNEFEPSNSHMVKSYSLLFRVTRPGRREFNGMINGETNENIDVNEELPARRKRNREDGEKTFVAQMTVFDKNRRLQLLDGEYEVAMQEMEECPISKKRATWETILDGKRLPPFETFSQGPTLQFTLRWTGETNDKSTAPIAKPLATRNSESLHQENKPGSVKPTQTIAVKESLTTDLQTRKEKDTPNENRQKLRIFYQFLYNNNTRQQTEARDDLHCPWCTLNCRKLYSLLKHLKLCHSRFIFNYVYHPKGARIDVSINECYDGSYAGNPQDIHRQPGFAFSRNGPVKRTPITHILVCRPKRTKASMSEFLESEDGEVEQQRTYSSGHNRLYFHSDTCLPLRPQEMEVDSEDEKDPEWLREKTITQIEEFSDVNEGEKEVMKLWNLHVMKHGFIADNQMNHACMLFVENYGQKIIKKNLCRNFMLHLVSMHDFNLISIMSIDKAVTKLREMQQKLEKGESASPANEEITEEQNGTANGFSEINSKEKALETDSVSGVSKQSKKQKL
Chain of EZH2 within the PRC2 complex (Q09028 whole entry partner): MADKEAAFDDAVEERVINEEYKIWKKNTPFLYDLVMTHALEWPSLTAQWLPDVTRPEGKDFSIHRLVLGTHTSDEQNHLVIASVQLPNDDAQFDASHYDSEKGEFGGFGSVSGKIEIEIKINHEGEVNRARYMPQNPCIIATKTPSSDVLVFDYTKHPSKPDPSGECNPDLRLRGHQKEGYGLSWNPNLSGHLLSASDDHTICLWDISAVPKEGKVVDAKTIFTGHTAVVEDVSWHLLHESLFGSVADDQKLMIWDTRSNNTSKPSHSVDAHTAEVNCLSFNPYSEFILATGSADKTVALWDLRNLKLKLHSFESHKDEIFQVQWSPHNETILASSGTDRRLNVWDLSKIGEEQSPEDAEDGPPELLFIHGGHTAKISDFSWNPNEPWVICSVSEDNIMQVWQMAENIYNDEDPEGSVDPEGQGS
Chain of EZH2 within the PRC2 complex (Q6ZN18 whole entry partner): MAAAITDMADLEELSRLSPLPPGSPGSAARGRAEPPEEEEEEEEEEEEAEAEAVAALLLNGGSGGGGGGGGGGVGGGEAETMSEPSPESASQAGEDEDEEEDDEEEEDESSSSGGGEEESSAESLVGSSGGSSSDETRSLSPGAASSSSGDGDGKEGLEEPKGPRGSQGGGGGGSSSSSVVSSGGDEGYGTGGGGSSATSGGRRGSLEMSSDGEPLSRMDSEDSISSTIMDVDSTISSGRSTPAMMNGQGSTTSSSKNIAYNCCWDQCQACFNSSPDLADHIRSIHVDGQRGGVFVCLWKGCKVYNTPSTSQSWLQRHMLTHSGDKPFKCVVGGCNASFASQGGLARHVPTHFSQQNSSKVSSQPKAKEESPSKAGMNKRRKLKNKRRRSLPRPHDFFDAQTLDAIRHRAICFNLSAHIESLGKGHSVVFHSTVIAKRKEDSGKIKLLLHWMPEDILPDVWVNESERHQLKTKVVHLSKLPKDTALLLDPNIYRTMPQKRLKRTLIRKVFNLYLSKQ

Compound | IC50 [nM]
CCCc1cc(C)[nH]c(=O)c1CNC(=O)c1cc(-c2ccc(N3CCN(C)CC3)nc2)cc(NC(C)C)c1C [Example 2, 2-Methyl-3-[(1-methylethyl)amino]-N-[(6-methyl-2-oxo-4-propyl-1,2-dihydro-3-pyridinyl)methyl]-5-[6-(4-methyl-1-piperazinyl)-3-pyridinyl]benzamide] | 40
CCC(C)Oc1cc(C#N)cc(C(=O)NCc2c(C)cc(C)[nH]c2=O)c1C (centres unmarked) [Example 44, 3-(sec-Butoxy)-5-cyano-N-((4,6-dimethyl-2-oxo-1,2-dihydropyridin-3-yl)methyl)-2-methylbenzamide] | 316
CCC(C)Oc1cc(Br)cc(C(=O)NCc2c(C)cc(C)[nH]c2=O)c1C (centres unmarked) [Example 20, 5-Bromo-3-(sec-butoxy)-N-((4,6-dimethyl-2-oxo-1,2-dihydropyridin-3-yl)methyl)-2-methylbenzamide] | 13
CCCc1cc(C)[nH]c(=O)c1CNC(=O)c1cc(Br)cc(NC(C)C)c1C [Example 1, 5-Bromo-2-methyl-3-[(1-methylethyl)amino]-N-[(6-methyl-2-oxo-4-propyl-1,2-dihydro-3-pyridinyl)methyl]benzamide] | 501
COc1cccc(C(=O)NCc2c(C)cc(C)[nH]c2=O)c1C [Example 36, N-((4,6-dimethyl-2-oxo-1,2-dihydropyridin-3-yl)methyl)-3-methoxy-2-methylbenzamide] | 2500
Cc1cc(C)c(CNC(=O)c2cc(Cl)cc(OC(C)C)c2Cl)c(=O)[nH]1 [Example 24, 2,5-Dichloro-N-[(4,6-dimethyl-2-oxo-1,2-dihydro-3-pyridinyl)methyl]-3-[(1-methylethyl)oxy]benzamide] | 250
Cc1cc(C)c(CNC(=O)c2cc(Cl)cc(NC(C)CO)c2C)c(=O)[nH]1 (centres unmarked) [Example 26, 5—Chloro-N-[(4,6-dimethyl-2-oxo-1,2-dihydro-3-pyridinyl)methyl]-3-[(2-hydroxy-1-methylethyl)amino]-2-methylbenzamide] | 1000
Cc1cc(Cc2ccccc2)c(CNC(=O)c2cc(Br)cc(NC(C)C)c2C)c(=O)[nH]1 [Example 4, 5-Bromo-2-methyl-3-[(1-methylethyl)amino]-N-{[6-methyl-2-oxo-4-(phenylmethyl)-1,2-dihydro-3-pyridinyl]methyl}benzamide] | 50
